Our source for the IC50 values is patent US20160130278A1 (TAISHO PHARMACEUTICAL CO., LTD, priority 2013, published 2016).

In the test the target is T1, human type 1 glycine transporter (GlyT1) (Homo sapiens, UniProt P48067).
T1 construct: T98G cells (glioma cells) expressing human type 1 glycine transporter (GlyT1) were used
T1 sequence (P48067 1-706): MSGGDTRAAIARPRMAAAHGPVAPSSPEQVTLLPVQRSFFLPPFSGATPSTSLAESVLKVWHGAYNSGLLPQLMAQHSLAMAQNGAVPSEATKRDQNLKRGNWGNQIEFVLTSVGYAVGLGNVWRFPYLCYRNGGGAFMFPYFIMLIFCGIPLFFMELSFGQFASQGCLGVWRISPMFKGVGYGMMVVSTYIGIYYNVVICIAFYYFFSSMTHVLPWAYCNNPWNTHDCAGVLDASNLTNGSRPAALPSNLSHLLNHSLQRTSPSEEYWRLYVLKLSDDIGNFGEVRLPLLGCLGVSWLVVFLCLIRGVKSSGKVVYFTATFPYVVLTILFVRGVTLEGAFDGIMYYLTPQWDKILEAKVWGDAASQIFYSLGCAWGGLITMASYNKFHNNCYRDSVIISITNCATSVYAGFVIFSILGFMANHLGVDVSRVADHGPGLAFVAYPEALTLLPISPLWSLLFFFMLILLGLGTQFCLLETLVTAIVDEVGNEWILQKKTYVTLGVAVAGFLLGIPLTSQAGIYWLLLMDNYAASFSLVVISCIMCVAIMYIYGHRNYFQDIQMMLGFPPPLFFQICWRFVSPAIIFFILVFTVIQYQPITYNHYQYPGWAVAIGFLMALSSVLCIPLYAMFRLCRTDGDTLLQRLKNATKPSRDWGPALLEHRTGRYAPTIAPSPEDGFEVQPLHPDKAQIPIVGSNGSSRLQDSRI
As to the kind of experiment: Glycine uptake inhibition experiment ([3H]glycine uptake). It is filed as cell-based. The note with it: GlyT1. The method, boiled down: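 T98G glioma cells expressing human GlyT1 were pretreated 10 min with compound in HEPES buffer pH 7.4 (0.2% BSA), then incubated with compound plus 250 nM final [3H]glycine for 15 min at room temperature. Intracellular radioactivity was counted after NaOH lysis; 10 μM ALX5407 defined non-specific uptake. IC50 came from 10^−9–10^−5 M curves.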

Structures are written as SMILES. pIC50: −log10 of the molar value.

On to `O=C(N[C@@H](c1cccc(-c2ccccn2)c1)C1(O)CCCC1)c1nccc(C(F)(F)F)c1Cl` [Compound 35, 3-chloro-N-{(S)-(1-hydroxycyclopentyl)[3-(pyridin-2-yl)phenyl]methyl}-4-(trifluoromethyl)pyridine-2-carboxamide], for which the negative-log IC50 (pIC50) (usually the negative decadic logarithm of the IC50, by convention in mol/L) is 7.13.

The compound `O=C(NC(c1cccc(-n2cccn2)c1)C1(O)CCCC1)c1nccc(C(F)(F)F)c1Cl` (centres unmarked) [Compound 80, 3-chloro-N-{(1-hydroxycyclopentyl)[3-(1H-pyrazol-1-yl)phenyl]methyl}-4-(trifluoromethyl)pyridine-2-carboxamide] showed a pIC50 of 6.80.

`O=C(N[C@@H](c1cccc(Br)c1)[C@]1(O)CC[C@H](F)CC1)c1nccc(C(F)(F)F)c1Cl` [Compound 102, N-[(S)-(3-bromophenyl)(trans-4-fluoro-1-hydroxycyclohexyl)methyl]-3-chloro-4-(trifluoromethyl)pyridine-2-carboxamide]: the pIC50 is 6.82.

As to `O=C(NC(c1cccc(F)c1Cl)[C@]1(O)CC[C@@H](F)CC1)c1ccccc1Cl` (single isomer, unassigned) [Compound 247, 2-chloro-N-[(2-chloro-3-fluorophenyl)(cis-4-fluoro-1-hydroxycyclohexyl)methyl]benzamide], the pIC50 is 6.00.

`Cc1cccc(C)c1C(=O)NC(c1ccccc1)C1(O)CCCC1` (centres unmarked) [Compound 30, N-[(1-hydroxycyclopentyl)(phenyl)methyl]-2,6-dimethylbenzamide] gave a pIC50 of 5.19.

In turn, `CCn1cc(-c2cccc(C(NC(=O)c3cc(C(F)(F)F)ccc3Cl)C3(O)CCC(F)(F)CC3)c2)cn1` (centres unmarked) [Compound 180, 2-chloro-N-{(4,4-difluoro-1-hydroxycyclohexyl)[3-(1-ethyl-1H-pyrazol-4-yl)phenyl]methyl}-5-(trifluoromethyl)benzamide] had a pIC50 of 6.68.

Compound `O=C(NC(c1cc(F)cc(Cl)c1)C1(O)CCCC1)c1nccc(C(F)(F)F)c1Cl` (centres unmarked) [Compound 88, 3-chloro-N-[(3-chloro-5-fluroophenyl)(1-hydroxycyclopentyl)methyl]-4-(trifluoromethyl)pyridine-2-carboxamide] showed a negative-log IC50 (pIC50) of 6.74.

The compound `CCn1cc(-c2cccc(C(NC(=O)c3cccc(Cl)c3Cl)C3(O)CCC(F)(F)CC3)c2)cn1` (centres unmarked) [Compound 119, 2,3-dichloro-N-{(4,4-difluoro-1-hydroxycyclohexyl)[3-(1-ethyl-1H-pyrazol-4-yl)phenyl]methyl}benzamide] had a pIC50 of 6.33.

`CCn1cc(-c2cccc(C(NC(=O)c3nccc(C(F)(F)F)c3Cl)C3(O)CCCC3)c2)cn1` (centres unmarked) [Compound 10, 3-chloro-N-{[3-(1-ethyl-1H-pyrazol-4-yl)phenyl](1-hydroxycyclopentyl)methyl}-4-(trifluoromethyl)pyridine-2-carboxamide] gave a negative logarithm of the IC50 (pIC50) of 7.89.

`CCn1cc(-c2cccc(C(NC(=O)c3cccc(C(F)(F)F)c3Cl)C3(O)CCCCC3)c2)cn1` (centres unmarked) [Compound 16, 2-chloro-N-{[3-(1-ethyl-1H-pyrazol-4-yl)phenyl](1-hydroxycyclohexyl)methyl}-3-(trifluoromethyl)benzamide]: the pIC50 was 7.36.

As for `CCn1cc(-c2cccc(C(NC(=O)c3cccc(C(F)(F)F)c3C)C3(O)CCC(F)(F)CC3)c2)cn1` (single isomer, unassigned) [Compound 150, N-{(4,4-difluoro-1-hydroxycyclohexyl)[3-(1-ethyl-1H-pyrazol-4-yl)phenyl]methyl}-2-methyl-3-(trifluoromethyl)benzamide], the pIC50 was 6.08.

The compound `O=C(NC(c1cccc(-c2cnn(CC(F)(F)F)c2)c1)C1(O)CCC(F)(F)CC1)c1nccc(C(F)(F)F)c1Cl` (centres unmarked) [Compound 132, 3-chloro-N-[(4,4-difluoro-1-hydroxycyclohexyl){3-[1-(2,2,2-trifluoroethyl)-1H-pyrazol-4-yl]phenyl}methyl]-4-(trifluoromethyl)pyridine-2-carboxamide] showed a pIC50 of 6.89.

The compound `O=C(NC(c1cccc(Cl)n1)C1(O)CCCCC1)c1ccnc(C(F)(F)F)c1Cl` (single isomer, unassigned) [Compound 385, 3-chloro-N-[(6-chloropyridin-2-yl)(1-hydroxycyclohexyl)methyl]-2-(trifluoromethyl)pyridine-4-carboxamide] gave a pIC50 of 7.59.

`O=C(NC(c1cccc(Br)c1)C1(O)CCC(F)(F)CC1)c1nccc(C(F)(F)F)c1Cl` (single isomer, unassigned) [Compound 90, N-[(3-bromophenyl)(4,4-difluoro-1-hydroxycyclohexyl)methyl]-3-chloro-4-(trifluoromethyl)pyridine-2-carboxamide] showed a pIC50 of 6.52.

In turn, `O=C(NC(c1cccc(-c2ccncc2)c1)C1(O)CCCC1)c1cccc(C(F)(F)F)c1Cl` (centres unmarked) [Compound 4, 2-chloro-N-{(1-hydroxycyclopentyl)[3-(pyridin-4-yl)phenyl]methyl}-3-(trifluoromethyl)benzamide] gave a pIC50 of 6.40.

`O=C(NC(c1cccc(OC(F)(F)F)c1)C1(O)CCCC1)c1nccc(C(F)(F)F)c1Cl` (centres unmarked) [Compound 84, 3-chloro-N-{(1-hydroxycyclopentyl)[3-(trifluoromethoxy)phenyl]methyl}-4-(trifluoromethyl)pyridine-2-carboxamide] had a pIC50 of 5.59.

As for `CS(=O)(=O)c1ccc(C(F)(F)F)cc1C(=O)NC(c1cc(Cl)ccn1)[C@]1(O)CC[C@@H](F)CC1` (single isomer, unassigned) [Compound 396, N-[(4-chloropyridin-2-yl)(cis-4-fluoro-1-hydroxycyclohexyl]methyl]-2-(methylsulfonyl)-5-(trifluoromethyl)benzamide], the negative logarithm of the IC50 (pIC50) was 6.54.

For the compound `O=C(NC(c1cncc(Cl)c1)[C@]1(O)CC[C@@H](F)CC1)c1nccc(C(F)(F)F)c1Cl` (single isomer, unassigned) [Compound 243, 3-chloro-N-[(5-chloropyridin-3-yl)(cis-4-fluoro-1-hydroxycyclohexyl)methyl]-4-(trifluoromethyl)pyridine-2-carboxamide], the pIC50 is 5.82.

`CCn1cc(-c2cccc(C(NC(=O)c3cccc(Cl)c3Cl)C3(O)CCC(F)(F)CC3)c2)cn1` (single isomer, unassigned) [Compound 144, 2,3-dichloro-N-{(4,4-difluoro-1-hydroxycyclohexyl)[3-(1-ethyl-1H-pyrazol-4-yl)phenyl]methyl}benzamide] had a pIC50 of 6.28.

Compound `CCn1cc(-c2cccc(C(NC(=O)c3nccc(C(F)(F)F)c3Cl)C3(O)CCC(F)(F)CC3)c2)cn1` (single isomer, unassigned) [Compound 92, 3-chloro-N-{(4,4-difluoro-1-hydroxycyclohexyl)[3-(1-ethyl-1H-pyrazol-4-yl)phenyl]methyl}-4-(trifluoromethyl)pyridine-2-carboxamide] showed a pIC50 of 7.57.

Compound `O=C(NC(c1cccc(F)n1)[C@]1(O)CC[C@@H](F)CC1)c1nccc(C(F)(F)F)c1Cl` (single isomer, unassigned) [Compound 329, 3-chloro-N-[(cis-4-fluoro-1-hydroxycyclohexyl)(6-fluoropyridin-2-yl)methyl]-4-(trifluoromethyl)pyridine-2-carboxamide] gave a pIC50 of 6.85.

The compound `O=C(NC(c1cccc(F)c1Cl)[C@]1(O)CC[C@@H](F)CC1)c1nccc(C(F)F)c1Cl` (single isomer, unassigned) [Compound 241, 3-chloro-N-[(2-chloro-3-fluorophenyl)(cis-4-fluoro-1-hydroxycyclohexyl)methyl]-4-(difluoromethyl)pyridine-2-carboxamide] gave a negative logarithm of the IC50 (pIC50) of 6.96.

On to `CCn1cc(-c2cccc(C(NC(=O)c3cccc(Cl)c3C)C3(O)CCC(F)(F)CC3)c2)cn1` (centres unmarked) [Compound 124, 3-chloro-N-{(4,4-difluoro-1-hydroxycyclohexyl)[3-(1-ethyl-1H-pyrazol-4-yl)phenyl]methyl}-2-methylbenzamide], for which the pIC50 was 6.51.

`O=C(NC(c1cccc(F)c1)C1(O)CCCCC1)c1nccc(C(F)(F)F)c1Cl` (single isomer, unassigned) [Compound 68, 3-chloro-N-[(3-fluorophenyl)(1-hydroxycyclohexyl)methyl]-4-(trifluoromethyl)pyridine-2-carboxamide] showed a pIC50 of 5.59.

Consider `O=C(NC(c1cccnc1Cl)[C@]1(O)CC[C@@H](F)CC1)c1cccc(C(F)(F)F)c1Cl` (single isomer, unassigned) [Compound 322, 2-chloro-N-[(2-chloropyridin-3-yl)(cis-4-fluoro-1-hydroxycyclohexyl)methyl]-3-(trifluoromethyl)benzamide], for which the pIC50 was 6.46.

As for `O=C(NC(c1cc(Cl)cc(Cl)c1)C1(O)CCCC1)c1nccc(C(F)(F)F)c1Cl` (single isomer, unassigned) [Compound 115, 3-chloro-N-[(3,5-dichlorophenyl)(1-hydroxycyclopentyl)methyl]-4-(trifluoromethyl)pyridine-2-carboxamide], the negative-log IC50 (pIC50) is 7.23.
